target: T1, LHRH rat pituitary receptor (Rattus norvegicus, UniProt P30969); test: LHRH rat pituitary receptor binding (pKI); details: negative logarithm of the equilibrium dissociation constants, Table 1, read-out: receptor binding affinity (pKI) (converted)
T1 construct: from tissue; host or cells: rat pituitary
T1 sequence (P30969 1-327): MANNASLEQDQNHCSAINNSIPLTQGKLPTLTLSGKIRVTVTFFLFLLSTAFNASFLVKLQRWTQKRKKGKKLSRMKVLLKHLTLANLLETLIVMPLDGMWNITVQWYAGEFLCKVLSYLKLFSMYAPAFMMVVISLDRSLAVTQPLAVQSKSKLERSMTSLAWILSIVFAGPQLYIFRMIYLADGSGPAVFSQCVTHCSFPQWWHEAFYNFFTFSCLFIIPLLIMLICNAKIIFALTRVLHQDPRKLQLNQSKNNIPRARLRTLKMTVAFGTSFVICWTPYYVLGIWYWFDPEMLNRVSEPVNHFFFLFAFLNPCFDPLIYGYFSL
Method: Representative compounds of the present invention were evaluated in in vitro tests for LHRH rat pituitary receptor binding (pKI) and for LH inhibition from rat pituitary cells for antagonist potency (pA2). The tests employed the methods detailed in F. Haviv, et al. J. Med. Chem., 32: 2340-2344 (1989). The receptor binding affinity (pKI) is the negative logarithm of the equilibrium dissociation constants.

Row | Ki | Compound
1 | 2.29 nM | CC[C@H]1OC(=O)[C@H](C)[C@@H](O[C@H]2C[C@@](C)(OC)[C@@H](O)[C@H](C)O2)[C@H](C)[C@@H](O[C@@H]2O[C@H](C)C[C@H](N(C)CCCc3ccccn3)[C@H]2O)[C@](C)(OC)C[C@@H](C)C(=O)[C@H](C)[C@H]2N(CCc3ccc(F)c(Cl)c3)C(=O)O[C@]12C [Example 82, 3'-N-Desmethyl-3'-N-[3-(2-pyridyl)propyl]-11-deoxy-11-[carboxy-(3-chloro-4-fluorophenethylamino)]-6-O-methyl-erythromycin A 11,12-(cyclic carbamate)]
2 | 1.91 nM | CC[C@H]1OC(=O)[C@H](C)[C@@H](O[C@H]2C[C@@](C)(OC)[C@@H](O)[C@H](C)O2)[C@H](C)[C@@H](O[C@@H]2O[C@H](C)C[C@H](N(C)Cc3cccc(C)n3)[C@H]2O)[C@](C)(OC)C[C@@H](C)C(=O)[C@H](C)[C@H]2N(CCc3ccc(F)c(Cl)c3)C(=O)O[C@]12C [Example 48, 3'-N-Desmethyl-3'-N-[2-(6-methyl)pyridyl]methyl-11-deoxy-11-[carboxy-(3-chloro-4-fluorophenethylamino)]-6-O-methyl-erythromycin A 11,12-(cyclic carbamate)]
3 | 4.17 nM | CC[C@H]1OC(=O)[C@H](C)[C@@H](O[C@H]2C[C@@](C)(OC)[C@@H](O)[C@H](C)O2)[C@H](C)[C@@H](O[C@@H]2O[C@H](C)C[C@H](N(C)CCc3ccccn3)[C@H]2O)[C@](C)(OC)C[C@@H](C)C(=O)[C@H](C)[C@H]2N(CCc3ccc(Cl)c(Cl)c3)C(=O)O[C@]12C [Example 89, 3'-N-Desmethyl-3'-N-(2-pyridyl)ethyl-11-deoxy-11-[carboxy-(3,4-dichlorophenethylamino)]-6-O-methyl-erythromycin A 11,12-(cyclic carbamate)]
4 | 2.51 nM | CC[C@H]1OC(=O)[C@H](C)[C@@H](O[C@H]2C[C@@](C)(OC)[C@@H](O)[C@H](C)O2)[C@H](C)[C@@H](O[C@@H]2O[C@H](C)C[C@H](N(C)Cc3ccccn3)[C@H]2O)[C@](C)(OC)C[C@@H](C)C(=O)[C@H](C)[C@H]2N(CCc3ccc(F)c(Cl)c3)C(=O)O[C@]12C [Example 47, 3'-N-Desmethyl-3'-N-(2-pyridyl)methyl-11-deoxy-11-[carboxy-(3-chloro-4-fluorophenethylamino)]-6-O-methyl-erythromycin A 11,12-(cyclic carbamate)]
5 | 6.17 nM | CC[C@H]1OC(=O)[C@H](C)[C@@H](O[C@H]2C[C@@](C)(OC)[C@@H](O)[C@H](C)O2)[C@H](C)[C@@H](O[C@@H]2O[C@H](C)C[C@H](N(C)CCCc3ccccn3)[C@H]2O)[C@](C)(OC)C[C@@H](C)C(=O)[C@H](C)[C@H]2N(CCc3ccc(Cl)c(Cl)c3)C(=O)O[C@]12C [Example 77, 3'-N-Desmethyl-3'-N-[3-(2-pyridyl)propyl]-11-deoxy-11-[carboxy-(3,4-dichlorophenethylamino)]-6-O-methyl-erythromycin A 11,12-(cyclic carbamate)]

Continued, compound first:

Row | Compound | Ki
6 | CCC(C)N(C)[C@H]1C[C@@H](C)O[C@@H](O[C@@H]2[C@@H](C)[C@H](O[C@H]3C[C@@](C)(OC)[C@@H](O)[C@H](C)O3)[C@@H](C)C(=O)O[C@H](CC)[C@@]3(C)OC(=O)N(CCc4ccc(Cl)cc4)[C@@H]3[C@@H](C)C(=O)[C@H](C)C[C@@]2(C)OC)[C@@H]1O (stereo partly shown) [Example 35, 3'-N-Desmethyl-3'-N-(2-butyl)-11-deoxy-11-[carboxy-(4-chlorophenethylamino)]-6-O-methyl-erythromycin A 11,12-(cyclic carbamate)] | 7.59 nM
7 | CC[C@H]1OC(=O)[C@H](C)[C@@H](O[C@H]2C[C@@](C)(OC)[C@@H](O)[C@H](C)O2)[C@H](C)[C@@H](O[C@@H]2O[C@H](C)C[C@H](N(C)Cc3ccc4ccccc4c3Br)[C@H]2O)[C@](C)(OC)C[C@@H](C)C(=O)[C@H](C)[C@H]2N(CCc3ccc(Cl)c(Cl)c3)C(=O)O[C@]12C [Example 72, 3'-N-Desmethyl-3'-N-(1-bromo-2-napthylmethyl)-11-deoxy-11-[carboxy-(3,4-dichlorophenethylamino)]-6-O-methyl-erythromycin A 11,12-(cyclic carbamate)] | 0.676 nM
8 | CC[C@H]1OC(=O)[C@H](C)[C@@H](O[C@H]2C[C@@](C)(OC)[C@@H](O)[C@H](C)O2)[C@H](C)[C@@H](O[C@@H]2O[C@H](C)C[C@H](N(C)C(C)C)[C@H]2O)[C@](C)(OC)C[C@@H](C)C(=O)[C@H](C)[C@H]2N(CCc3ccc(F)c(F)c3)C(=O)O[C@]12C [Example 53, 3'-N-Desmethyl-3'-N-isopropyl-11-deoxy-11-[carboxy-(3,4-difluorophenethylamino)]-6-O-methyl-erythromycin A 11,12-(cyclic carbamate)] | 3.02 nM
9 | CC[C@H]1OC(=O)[C@H](C)[C@@H](O[C@H]2C[C@@](C)(OC)[C@@H](O)[C@H](C)O2)[C@H](C)[C@@H](O[C@@H]2O[C@H](C)C[C@H](N(C)CCCCc3cccc(C)n3)[C@H]2O)[C@](C)(OC)C[C@@H](C)C(=O)[C@H](C)[C@H]2N(CCc3ccc(F)c(Cl)c3)C(=O)O[C@]12C [Example 84, 3'-N-Desmethyl-3'-N-[4-(6-methyl)-2-pyridyl]butyl-11-deoxy-11-[carboxy-(3-chloro-4-fluorophenethylamino)]-6-O-methyl-erythromycin A 11,12-(cyclic carbamate)] | 7.08 nM
10 | CC[C@H]1OC(=O)[C@H](C)[C@@H](O[C@H]2C[C@@](C)(OC)[C@@H](O)[C@H](C)O2)[C@H](C)[C@@H](O[C@@H]2O[C@H](C)C[C@H](N(C)Cc3ccc(C)c4ccccc34)[C@H]2O)[C@](C)(OC)C[C@@H](C)C(=O)[C@H](C)[C@H]2N(CCc3ccc(Cl)c(Cl)c3)C(=O)O[C@]12C [Example 73, 3'-N-Desmethyl-3'-N-(4-methyl-1-napthylmethyl)-11-deoxy-11-[carboxy-(3,4-dichlorophenethylamino)]-6-O-methyl-erythromycin A 11,12-(cyclic carbamate)] | 0.214 nM
11 | CC[C@H]1OC(=O)[C@H](C)[C@@H](O[C@H]2C[C@@](C)(OC)[C@@H](O)[C@H](C)O2)[C@H](C)[C@@H](O[C@@H]2O[C@H](C)C[C@H](N(C)CC3CCC3)[C@H]2O)[C@](C)(OC)C[C@@H](C)C(=O)[C@H](C)[C@H]2N(CCc3ccc(Cl)cc3)C(=O)O[C@]12C [Example 19, 3'-N-Desmethyl-3'-N-cyclobutylmethyl-11-deoxy-11-[carboxy-(4-chlorophenethylamino)]-6-O-methyl-erythromycin A 11,12-(cyclic carbamate)] | 1.58 nM
12 | CCCN(C)[C@H]1C[C@@H](C)O[C@@H](O[C@@H]2[C@@H](C)[C@H](O[C@H]3C[C@@](C)(OC)[C@@H](O)[C@H](C)O3)[C@@H](C)C(=O)O[C@H](CC)[C@@]3(C)OC(=O)N(CCc4ccc5c(c4)OCO5)[C@@H]3[C@@H](C)C(=O)[C@H](C)C[C@@]2(C)OC)[C@@H]1O [Example 14, 3'-N-Desmethyl-3'-N-n-propyl-11-deoxy-11-[carboxy-(3,4-dioxolanophenethylamino)]-6-O-methyl-erythromycin A 11,12-(cyclic carbamate)] | 1.78 nM
13 | CC[C@H]1OC(=O)[C@H](C)[C@@H](O[C@H]2C[C@@](C)(OC)[C@@H](O)[C@H](C)O2)[C@H](C)[C@@H](O[C@@H]2O[C@H](C)C[C@H](N(C)Cc3cccc(C)n3)[C@H]2O)[C@](C)(OC)C[C@@H](C)C(=O)[C@H](C)[C@H]2N(CCc3ccc(Cl)c(Cl)c3)C(=O)O[C@]12C [Example 70, 3'-N-Desmethyl-3'-N-[6-methyl-2-pyridylmethyl]-11-deoxy-11-[carboxy-(3,4-dichlorophenethylamino)]-6-O-methyl-erythromycin A 11,12-(cyclic carbamate)] | 5.89 nM
14 | CC[C@H]1OC(=O)[C@H](C)[C@@H](O[C@H]2C[C@@](C)(OC)[C@@H](O)[C@H](C)O2)[C@H](C)[C@@H](O[C@@H]2O[C@H](C)C[C@H](N(C)CCCCc3ccncc3)[C@H]2O)[C@](C)(OC)C[C@@H](C)C(=O)[C@H](C)[C@H]2N(CCc3ccc(Cl)c(Cl)c3)C(=O)O[C@]12C [Example 78, 3'-N-Desmethyl-3'-N-[4-(4-pyridyl)butyl]-11-deoxy-11-[carboxy-(3,4-dichlorophenethylamino)]-6-O-methyl-erythromycin A 11,12-(cyclic carbamate)] | 7.94 nM
15 | CC[C@H]1OC(=O)[C@H](C)[C@@H](O[C@H]2C[C@@](C)(OC)[C@@H](O)[C@H](C)O2)[C@H](C)[C@@H](O[C@@H]2O[C@H](C)C[C@H](N(C)Cc3ccc(CO)o3)[C@H]2O)[C@](C)(OC)C[C@@H](C)C(=O)[C@H](C)[C@H]2N(CCc3ccc(Cl)c(Cl)c3)C(=O)O[C@]12C [Example 58, 3'-N-Desmethyl-3'-N-[2-(5-hydroxymethyl)furyl]methyl-11-deoxy-11-[carboxy-(3,4-dichlorophenethylamino)]-6-O-methyl-erythromycin A 11,12-(cyclic carbamate)] | 1.55 nM
16 | CC[C@H]1OC(=O)[C@H](C)[C@@H](O[C@H]2C[C@@](C)(OC)[C@@H](O)[C@H](C)O2)[C@H](C)[C@@H](O[C@@H]2O[C@H](C)C[C@H](N(C)CCC(C)SC)[C@H]2O)[C@](C)(OC)C[C@@H](C)C(=O)[C@H](C)[C@H]2N(CCc3ccc(F)c(Cl)c3)C(=O)O[C@]12C (stereo partly shown) [Example 50, 3'-N-Desmethyl-3'-N-(3-methylthio)butyl-11-deoxy-11-[carboxy-(3-chloro-4-fluorophenethylamino)]-6-O-methyl-erythromycin A 11,12-(cyclic carbamate)] | 0.977 nM

Reference: patent US5955440A, “Macrolide LHRH antagonists” (Abbott Laboratories, priority 1998, dated 1999)
